Legend:
Entamoeba histolytica = experiment: Antiamoebic activity against trophozoite stage of Entamoeba histolytica HM-1:IMSS measured after 72 hrs by microdilution method; format: functional, organism-based
Vero = experiment: Cytotoxicity against African green monkey Vero cells up to 50 uM; format: cell-based; conditions: chlorocebus sabaeus

O=[N+]([O-])c1cnc(/C=C/c2ccc(Br)cc2)n1CCn1cc(-c2ccccc2)nn1
IC50 (Entamoeba histolytica): 1770 nM

O=[N+]([O-])c1cnc(/C=C/c2ccc(F)cc2)n1CCn1cc(CO)nn1
IC50 (Entamoeba histolytica): 180 nM | Activity (Vero): Non-Toxic

O=[N+]([O-])c1cnc(/C=C/c2ccc(Cl)cc2)n1CCn1cc(-c2ccccc2)nn1
IC50 (Entamoeba histolytica): 1220 nM | Activity (Vero): Non-Toxic

O=[N+]([O-])c1cnc(/C=C/c2ccc(F)cc2)n1CCn1cc(-c2ccccc2)nn1
IC50 (Entamoeba histolytica): 120 nM | Activity (Vero): Non-Toxic

O=[N+]([O-])c1cnc(/C=C/c2ccc(F)cc2)n1CCn1cc(-c2ccccn2)nn1
IC50 (Entamoeba histolytica): 130 nM | Activity (Vero): Non-Toxic

O=[N+]([O-])c1cnc(/C=C/c2ccc(F)cc2)n1CCn1cc(COc2ccccc2)nn1
IC50 (Entamoeba histolytica): 280 nM | Activity (Vero): Non-Toxic

O=[N+]([O-])c1cnc(/C=C/c2ccc(Br)cc2)n1CCn1cc(-c2ccccn2)nn1
IC50 (Entamoeba histolytica): 1100 nM | Activity (Vero): Non-Toxic

O=[N+]([O-])c1cnc(/C=C/c2ccc(Br)cc2)n1CCn1cc(COc2ccccc2)nn1
IC50 (Entamoeba histolytica): 1680 nM

Cc1ccc(/C=C/c2ncc([N+](=O)[O-])n2CCn2cc(-c3ccccn3)nn2)cc1
IC50 (Entamoeba histolytica): 6010 nM

Cc1ccc(/C=C/c2ncc([N+](=O)[O-])n2CCn2cc(-c3ccccc3)nn2)cc1
IC50 (Entamoeba histolytica): 2510 nM

O=[N+]([O-])c1cnc(/C=C/c2ccc(Cl)cc2)n1CCn1cc(COc2ccccc2)nn1
IC50 (Entamoeba histolytica): 350 nM | Activity (Vero): Non-Toxic

CCc1ccc(/C=C/c2ncc([N+](=O)[O-])n2CCn2cc(-c3ccccc3)nn2)cc1
IC50 (Entamoeba histolytica): 4680 nM

O=[N+]([O-])c1cnc(/C=C/c2ccc(Br)cc2)n1CCn1cc(CO)nn1
IC50 (Entamoeba histolytica): 1650 nM

CCc1ccc(/C=C/c2ncc([N+](=O)[O-])n2CCn2cc(CO)nn2)cc1
IC50 (Entamoeba histolytica): 4180 nM

Cc1ccc(/C=C/c2ncc([N+](=O)[O-])n2CCn2cc(CO)nn2)cc1
IC50 (Entamoeba histolytica): 2130 nM

O=[N+]([O-])c1cnc(/C=C/c2ccccc2)n1CCn1cc(COc2ccccc2)nn1
IC50 (Entamoeba histolytica): 3560 nM

Cc1ccc(/C=C/c2ncc([N+](=O)[O-])n2CCn2cc(COc3ccccc3)nn2)cc1
IC50 (Entamoeba histolytica): 5380 nM

O=[N+]([O-])c1cnc(/C=C/c2ccccc2)n1CCn1cc(CO)nn1
IC50 (Entamoeba histolytica): 1120 nM | Activity (Vero): Non-Toxic

O=[N+]([O-])c1cnc(/C=C/c2ccccc2)n1CCn1cc(-c2ccccc2)nn1
IC50 (Entamoeba histolytica): 1350 nM | Activity (Vero): Non-Toxic

O=[N+]([O-])c1cnc(/C=C/c2ccc(Cl)cc2)n1CCn1cc(CO)nn1
IC50 (Entamoeba histolytica): 1110 nM | Activity (Vero): Non-Toxic

O=[N+]([O-])c1cnc(/C=C/c2ccccc2)n1CCn1cc(-c2ccccn2)nn1
IC50 (Entamoeba histolytica): 5130 nM

O=[N+]([O-])c1cnc(/C=C/c2ccc(Cl)cc2)n1CCn1cc(-c2ccccn2)nn1
IC50 (Entamoeba histolytica): 290 nM | Activity (Vero): Non-Toxic

Source: ChEMBL document CHEMBL4229354, “Synthesis, antiamoebic activity and docking studies of metronidazole-triazole-styryl hybrids” (Eur J Med Chem, 2018)
